# Results: US6911531B2, “Antibodies directed towards a novel human EP prostaglandin receptor” (Allergan, Inc., priority 1994, dated 2005)
# How the values were obtained:
# human HP4 receptor [1] = target: T1, human HP4 receptor (Homo sapiens, UniProt P43116); test: Competition of [3H]-PGE2 binding to membranes of HP4-transfected COS-7 cells; conditions: [3H]-PGE2 5 nM, 100 μg protein/tube, 60 minutes at room temperature; FIG. 1A-1C
# T1 construct: a plasmid with a complete open reading frame in the sense orientation was isolated; expressed in transfected cells; host or cells: COS-7 cells (ATCC CRL 1651), transient DEAE-dextran transfection with pBC/HP4
# T1 sequence (P43116 whole entry): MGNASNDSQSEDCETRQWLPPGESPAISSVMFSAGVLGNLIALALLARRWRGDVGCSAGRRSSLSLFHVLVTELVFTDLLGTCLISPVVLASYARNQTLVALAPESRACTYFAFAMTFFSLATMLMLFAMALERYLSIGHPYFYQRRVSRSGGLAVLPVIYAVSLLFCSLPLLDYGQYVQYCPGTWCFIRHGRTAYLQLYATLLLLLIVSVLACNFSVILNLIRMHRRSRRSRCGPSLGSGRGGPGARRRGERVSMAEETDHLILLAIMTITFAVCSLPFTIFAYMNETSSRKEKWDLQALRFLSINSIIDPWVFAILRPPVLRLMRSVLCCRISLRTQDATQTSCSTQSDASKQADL
# Method: (§1) Monolayers of COS-7 cells (ATCC CRL 1651; 70-80% confluent) were rinsed with Phosphate Buffered Saline (PBS, Ca/Mg-free) in 150×25 mm culture dishes. Ten ml transfection mix, consisting of 5 μ/ml plasmid DNA and 0.5 mg/ml DEAE-dextran in PBS, was added to each dish and cells were incubated for 30 min at 37° C. Nine ml of the solution was removed from each dish followed by the addition of 10 ml of […] chloroquine in Dulbecco's Modified Eagle Medium (DMEM)/5% fetal bovine serum (FBS). The cells were incubated for 2.5 hr at 37° C., the solution aspirated and 10 ml of 10% dimethyl sulfoxide (DMSO) in DMEM/5% FBS was added. After a 2.5 minute incubation at 37° C., the solution was aspirated and 30 ml DMEM/5% FBS was added. The cells were incubated at 37° C. with media changes at 24 and 48 hours. After 72 hours, the media was aspirated and the cells were scraped into cold TME buffer (50 mM Tris-HCl, pH 7.4, 10 mM MgCl2, 1 mM EDTA). The dishes were rinsed with cold TME buffer and the cells combined and placed on ice.
# Transfected COS-7 cells were homogenized for 30 seconds at approximately 80% power with a Brinkman PT 10/35 Polytron homogenizer. The resulting homogenate was centrifuged at 19,000 rpm for 20 minutes at 4° C. using a Sorvall SS-34 rotor. The membrane pellet was resuspended in cold TME buffer (1 ml per original dish), frozen in liquid nitrogen and stored at −80° C.
# Membrane pellets were then diluted in ice-cold 50 mM Tris-HCl buffer at pH 7.4 using a sonicator set at 50 watts. Membrane suspensions (100 μl) were then added to each assay tube to start the binding reaction. Final concentrations of the competition assay were as follows: [^3H]-PGE2, 5 nM; 100 μg protein/tube in a total volume of 200 μl. Increasing concentrations of compounds to be tested for competitively inhibiting binding were incubated for 60 minutes at room temperature. Contents were aspirated onto a presoaked ice-cold Whatman GF/B filter using a Brandel Cell Harvester and washed three times with ice-cold assay buffer. The filters were dried, placed in scintillation fluid and counted.
# human HP4 receptor [2] = target: T1, human HP4 receptor; test: cAMP assay on HP4-transfected COS-7 cells; assay type: cell-based; conditions: FIG. 2
# Method: as §1
# HP4-transfected COS-7 cells, prepared as described in Example 2, were cultured in DMEM containing 10% FCS, 100 units/ml penicillin, 100 μ/ml streptomycin. […] Cells were trypsinized and resuspended in a small volume of medium (2-3 ml), counted using a hemocytometer and diluted to 7-8×10^4 cells/ml (DMEM/5% FCS). […] The amount of cAMP was quantified as follows. […]
# [3] = Nials et al., 1993; cited from earlier work
# human neutrophils = conditions: Nials et al., 1993; cited from earlier work
# human myometrium = conditions: Yeardley et al., 1992; cited from earlier work
# putative EP2 receptor = conditions: cloned receptor of An et al. 1993 / Honda et al. 1993; cited from earlier work
SMILES,competition of [3H]-PGE2 binding (human HP4 receptor [1]),further results
O=C(O)CCCCCC[C@H]1C(=O)CC[C@@H]1/C=C/[C@@H](O)COc1ccccc1 [MB 28767],only slightly active,
CCCCC[C@H](O)/C=C/[C@H]1[C@H](O)CC(=O)[C@@H]1CCCCCCCO [PGE1-1-OH],only slightly active,
"CCCCC[C@H](O)/C=C/[C@H]1[C@H](O)CC(=O)[C@@H]1C/C=C\CCCC(=O)O [PGE2, Prostaglandin E2]",strongest competitors,"cAMP levels (human HP4 receptor [2]; IBMX, 3 minutes at 37° C.): significantly increased; potency order of stimulation of cAMP formation (human HP4 receptor [2]; order PGE2, AH13205, butaprost, PGE1-1-OH): potently stimulate cAMP formation"
C[C@@H](O)CCC[C@H](O)/C=C/[C@H]1[C@H](O)CC(=O)[C@@H]1C/C=C\CCCC(=O)O [19(R)-hydroxy PGE2],exhibited competitive activity,
CCCCC[C@H](O)/C=C/[C@H]1CCC(=O)[C@@H]1CCCCCCC(=O)O [11-deoxy PGE1],exhibited competitive activity,
CCCCCC(O)c1ccc(C2CCC(=O)C2CCCCCCC(=O)O)cc1 (stereo not shown) [AH13205],displaced,bronchodilation [3]: induce bronchodilation; release of the inflammatory mediator leukotriene B4 (human neutrophils): inhibit; spontaneous contraction of human myometrium (human myometrium): inhibits
CS(=O)(=O)NC(=O)CCC/C=C\C[C@H]1C(=O)C[C@@H](O)[C@@H]1/C=C/[C@@H](O)COc1ccccc1 [Sulprostone],inactive,
"CCCCC(C)(C)[C@H](O)/C=C/[C@H]1[C@H](O)CC(=O)[C@@H]1C/C=C\CCCC(=O)O [16,16-dimethyl PGE2]",active,
CCCC1([C@H](O)C/C=C/[C@H]2[C@H](O)CC(=O)[C@@H]2CCCCCCC(=O)OC)CCC1 [butaprost],displaced,activity at the putative EP2 receptor clone (putative EP2 receptor): inactive
CCCCC[C@H](O)/C=C/[C@H]1[C@H](O)CC(=O)[C@@H]1CCCCCCC(=O)O [PGE1],strongest competitors,
